Consider ten compounds from ChEMBL document CHEMBL4699491, “Identification of TNO155, an Allosteric SHP2 Inhibitor for the Treatment of Cancer” (J Med Chem, 2020).

Series [1] addresses T1, Tyrosine-protein phosphatase non-receptor type 11 (Homo sapiens, UniProt Q06124).
T1 sequence (Q06124 whole entry): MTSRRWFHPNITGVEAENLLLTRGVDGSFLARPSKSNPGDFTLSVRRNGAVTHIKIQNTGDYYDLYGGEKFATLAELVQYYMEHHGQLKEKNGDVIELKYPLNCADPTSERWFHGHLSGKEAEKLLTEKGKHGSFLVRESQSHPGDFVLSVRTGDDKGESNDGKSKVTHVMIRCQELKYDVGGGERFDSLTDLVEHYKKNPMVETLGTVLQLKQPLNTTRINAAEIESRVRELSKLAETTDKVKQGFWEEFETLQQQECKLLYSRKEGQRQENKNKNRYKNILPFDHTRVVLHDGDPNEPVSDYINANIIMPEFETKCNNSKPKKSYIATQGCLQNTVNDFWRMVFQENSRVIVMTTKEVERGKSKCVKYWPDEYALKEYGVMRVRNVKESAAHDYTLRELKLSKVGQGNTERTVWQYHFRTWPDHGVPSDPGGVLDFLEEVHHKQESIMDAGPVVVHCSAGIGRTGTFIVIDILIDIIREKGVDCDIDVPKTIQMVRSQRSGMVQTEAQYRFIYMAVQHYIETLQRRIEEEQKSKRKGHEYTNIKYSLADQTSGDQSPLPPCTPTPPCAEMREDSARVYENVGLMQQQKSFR
Description: Allosteric inhibition of human SHP2 in human KYSE-520 cells assessed as reduction in ERK1/2 phosphorylation by fluorescence based assay

A further series relates to KYSE-520 cell line. The series can be described thus: Antiproliferative activity against human KYSE-520 cells. It counts as functional, cell-based.
Series [2] concerns the target Serine/threonine-protein kinase B-raf (Homo sapiens, UniProt P15056). Briefly: Inhibition of RAF in human A-375 cells assessed as reduction in p-ERK levels. It counts as cell-based.
The next series concerns A-375. Briefly: Antiproliferative activity against human A-375 cells. Type of series: functional, cell-based.
Series [3] in a line: physchem. Particulars: aqueous, pH 6.8.
Description: Aqueous solubility of the compound at pH 6.8
Series [4] can be described thus: physchem. Particulars: octanol/water.
Description: Distribution coefficient, logD of the compound
Series [5] is described as follows: Toxicity in mouse 3T3 cells under irradiation by NRU phototoxicity test. Type of series: cell-based.
The conditions of series [6]: octanol/water.
Description: Lipophilicity, logP of the compound
In series [7] the target is T2, Tyrosine-protein phosphatase non-receptor type 11 (Homo sapiens) (UniProt Q06124).
T2 sequence (whole entry): T1 sequence (Q06124 whole entry)
Particulars: filed as negative allosteric modulator.

Series [8] concerns the target T1, Tyrosine-protein phosphatase non-receptor type 11. The series can be described thus: Allosteric inhibition of 6x-histidine tagged human SHP2 (Met1-L525 residues) expressed in Escherichia coli BL21 Star (DE3) using IRS1_pY1172(dPEG8)[…] incubated for 30 mins by fluorescence based DIFMUP assay.
Series [9] addresses Voltage-gated inwardly rectifying potassium channel KCNH2 (Homo sapiens, UniProt Q12809).
Description: Inhibition of human ERG by Q-patch assay
Series [10] can be described thus: physchem. Particulars: octanol/water. This is another data set of the same source.
Description: Lipophilicity, logP of the compound

In brackets after ≈: the same amount, converted by molar mass.

Sequence of Voltage-gated inwardly rectifying potassium channel KCNH2 (Q12809 whole entry): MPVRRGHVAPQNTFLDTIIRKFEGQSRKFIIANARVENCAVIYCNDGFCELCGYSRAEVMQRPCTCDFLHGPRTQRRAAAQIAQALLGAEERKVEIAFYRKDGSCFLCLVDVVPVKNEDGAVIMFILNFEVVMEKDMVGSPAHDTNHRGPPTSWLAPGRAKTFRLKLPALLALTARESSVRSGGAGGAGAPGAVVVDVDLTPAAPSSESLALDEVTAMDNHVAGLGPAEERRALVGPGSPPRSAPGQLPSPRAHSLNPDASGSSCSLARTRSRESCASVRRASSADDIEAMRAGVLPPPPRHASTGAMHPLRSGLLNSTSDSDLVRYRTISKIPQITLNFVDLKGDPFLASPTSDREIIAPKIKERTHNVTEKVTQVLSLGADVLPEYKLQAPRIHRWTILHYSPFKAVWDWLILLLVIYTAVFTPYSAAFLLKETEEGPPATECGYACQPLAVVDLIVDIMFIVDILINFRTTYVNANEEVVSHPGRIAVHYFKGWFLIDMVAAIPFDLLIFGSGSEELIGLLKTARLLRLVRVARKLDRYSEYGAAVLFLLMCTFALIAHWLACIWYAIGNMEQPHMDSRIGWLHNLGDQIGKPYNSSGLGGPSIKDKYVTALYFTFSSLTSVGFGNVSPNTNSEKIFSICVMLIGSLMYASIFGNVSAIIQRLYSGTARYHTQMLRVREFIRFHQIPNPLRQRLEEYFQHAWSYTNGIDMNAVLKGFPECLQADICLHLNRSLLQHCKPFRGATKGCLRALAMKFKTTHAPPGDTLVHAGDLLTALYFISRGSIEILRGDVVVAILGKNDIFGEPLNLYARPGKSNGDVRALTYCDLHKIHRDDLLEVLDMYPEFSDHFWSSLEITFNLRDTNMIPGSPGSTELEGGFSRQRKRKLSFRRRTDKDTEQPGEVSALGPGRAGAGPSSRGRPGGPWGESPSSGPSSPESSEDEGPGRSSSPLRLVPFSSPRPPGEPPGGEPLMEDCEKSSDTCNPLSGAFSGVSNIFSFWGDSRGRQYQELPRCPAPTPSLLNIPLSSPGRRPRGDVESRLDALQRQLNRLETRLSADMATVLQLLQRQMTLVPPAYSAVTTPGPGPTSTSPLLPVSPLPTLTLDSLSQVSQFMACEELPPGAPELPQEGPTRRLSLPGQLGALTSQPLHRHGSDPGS
Sequence of Serine/threonine-protein kinase B-raf (P15056 whole entry): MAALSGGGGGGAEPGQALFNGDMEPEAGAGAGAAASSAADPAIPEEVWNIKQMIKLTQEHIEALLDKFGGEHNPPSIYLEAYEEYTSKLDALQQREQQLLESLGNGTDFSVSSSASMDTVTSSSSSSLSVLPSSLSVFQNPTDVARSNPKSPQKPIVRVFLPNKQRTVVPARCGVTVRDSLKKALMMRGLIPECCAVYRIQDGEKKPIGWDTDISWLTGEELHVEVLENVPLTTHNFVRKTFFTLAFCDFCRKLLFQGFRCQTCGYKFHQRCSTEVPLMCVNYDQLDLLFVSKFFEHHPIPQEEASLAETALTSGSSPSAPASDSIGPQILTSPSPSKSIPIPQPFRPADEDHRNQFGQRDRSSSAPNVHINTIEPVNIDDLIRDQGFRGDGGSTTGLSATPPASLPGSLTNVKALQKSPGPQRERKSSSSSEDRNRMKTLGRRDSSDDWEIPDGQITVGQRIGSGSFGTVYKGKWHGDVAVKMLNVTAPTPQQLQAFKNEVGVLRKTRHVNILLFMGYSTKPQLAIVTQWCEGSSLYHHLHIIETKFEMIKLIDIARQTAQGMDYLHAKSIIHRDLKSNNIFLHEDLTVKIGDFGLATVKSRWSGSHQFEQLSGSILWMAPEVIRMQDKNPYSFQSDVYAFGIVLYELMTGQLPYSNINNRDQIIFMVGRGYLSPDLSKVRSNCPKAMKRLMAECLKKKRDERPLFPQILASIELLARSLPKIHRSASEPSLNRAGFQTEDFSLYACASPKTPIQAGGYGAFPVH

The term IC50 denotes the point on the concentration scale where inhibition reaches its midpoint. For the compound `CC1(N)CCN(c2cnc(Sc3ccccc3Cl)c(N)n2)CC1`, the IC50 in series [1] was 0.251 µM; in the series with KYSE-520 cell line (kyse-520), 8.14 µM.
Take `Cc1ccc(NC(=O)c2ccnc(C(F)(F)F)c2)cc1-c1cc(OCCO)nc(N2CCOCC2)c1` [NAPORAFENIB]: the results for the IC50 (in [2]; in the series on A-375) were 0.078 µM and 0.24 µM, respectively.
Usually solubility stands for the dissolved amount per volume that the medium holds. The logD is the decadic logarithm of the distribution of all forms, ionised or not, between an organic phase and buffer at a given pH. The term logP denotes the decadic logarithm of the partition coefficient of the neutral form, usually between octanol and water. Lower therefore signals lower lipophilicity. As usually defined, the ΔTm is the change in melting temperature against a reference sample. For `CC1(N)CCN(c2cnc(-c3cccc(Cl)c3Cl)c(N)n2)CC1`, in “physchem [3]”, the concentration in solution (solubility) was 290 µM (≈ 102 µg/mL). This compound also yielded a pH-dependent lipophilicity (logD) in “physchem [4]” of 0.92. The IC50 in series [5] was 4.5 µM; with KYSE-520 cell line (Homo sapiens, KYSE-520) it was 2.5 µM. This compound also yielded a logP in series [6] of 2.6. Further, in [7], the ΔTm turned out to be 7.5 °C.
With `Nc1nccc(Sc2cnc(N3CCC4(CCC[C@H]4N)CC3)cn2)c1Cl`, the IC50 with KYSE-520 cell line (Homo sapiens, KYSE-520) is 0.087 µM.
`C[C@H]1OCC2(CCN(c3cnc(Sc4ccnc(N)c4Cl)c(N)n3)CC2)[C@@H]1N` had a solubility in “physchem [3]” of 382 µM (≈ 161 µg/mL). In the series with KYSE-520 cell line (kyse-520), this compound showed an IC50 of 0.74 µM.
For `CC1(N)CCN(c2cnc(Cc3cccc(Cl)c3Cl)c(N)n2)CC1`, the IC50 in series [8] is 9.9 µM.
`CC1(CN)CCN(c2cnc(Sc3cccc(Cl)c3Cl)c(N)n2)CC1` came in with a solubility in “physchem [3]” of 109 µM (≈ 43.4 µg/mL). In addition, the IC50 in series [1] turned out to be 0.088 µM; in series [9], 2.4 µM; in the series on KYSE-520 cell line (kyse-520), 2.67 µM; in series [8] it was 0.017 µM. The logD in “physchem [4]” was 2.5. The compound further came in with a logP in “physchem [10]” of 4.3.
On to `CC1(N)CCN(c2cnc(Sc3cccc(Cl)c3Cl)c(N)n2)CC1`, for which, in “physchem [3]”, the solubility was 7 µM (≈ 2.69 µg/mL). In addition, the IC50 in series [1] stood at 0.195 µM; in series [5], 16.2 µM; in [9] it was 2.8 µM; with KYSE-520 cell line (kyse-520), 4.07 µM. This compound also gave a logD in “physchem [4]” of 1.1. Further, the logP in “physchem [10]” was determined as 3.6.
In the case of `Nc1nc(N2CCC3(CCC[C@H]3N)CC2)cnc1Sc1cccnc1C(F)(F)F`, 1.16 µM corresponded to half-maximal inhibition with KYSE-520 cell line (Homo sapiens, KYSE-520) (IC50).
`Nc1nc(N2CCC3(CCC[C@H]3N)CC2)cnc1Sc1ccnc(N)c1Cl`: in “physchem [3]”, the solubility came to 561 µM (≈ 228 µg/mL). Besides, the IC50 in series [1] is 0.024 µM; in series [9], over 30 µM; with KYSE-520 cell line (Homo sapiens, KYSE-520) it was 0.123 µM. The same compound had a logD in the series “physchem [4]” of -0.6. The compound further gave a logP in the series “physchem [10]” of 2.2.
